Series [1] can be described thus: Thermodynamic solubility of the compound in JP2 solution at pH 6.8 in presence of 20 mM bile acid. Type of series: physicochemical. To be noted: JP2 solution with 20 mM bile acid, read-out: Therm_solubility.
For series [2], the target named is Serine/threonine-protein kinase B-raf (Homo sapiens, UniProt P15056, V600E). Nature of the series: Inhibition of BRAF V600E mutant.
Series [3] in a line: Metabolic stability in human liver microsomes assessed as compound remaining at 30 uM after 60 mins by HPLC analysis. Type of series: ADME, Microsome. To be noted: read-out: Stability. (In general: Liver microsomes are vesicles of endoplasmic reticulum, rich in cytochrome P450 enzymes.)

Serine/threonine-protein kinase B-raf, sequence (P15056 2-766 V600E limits assumed): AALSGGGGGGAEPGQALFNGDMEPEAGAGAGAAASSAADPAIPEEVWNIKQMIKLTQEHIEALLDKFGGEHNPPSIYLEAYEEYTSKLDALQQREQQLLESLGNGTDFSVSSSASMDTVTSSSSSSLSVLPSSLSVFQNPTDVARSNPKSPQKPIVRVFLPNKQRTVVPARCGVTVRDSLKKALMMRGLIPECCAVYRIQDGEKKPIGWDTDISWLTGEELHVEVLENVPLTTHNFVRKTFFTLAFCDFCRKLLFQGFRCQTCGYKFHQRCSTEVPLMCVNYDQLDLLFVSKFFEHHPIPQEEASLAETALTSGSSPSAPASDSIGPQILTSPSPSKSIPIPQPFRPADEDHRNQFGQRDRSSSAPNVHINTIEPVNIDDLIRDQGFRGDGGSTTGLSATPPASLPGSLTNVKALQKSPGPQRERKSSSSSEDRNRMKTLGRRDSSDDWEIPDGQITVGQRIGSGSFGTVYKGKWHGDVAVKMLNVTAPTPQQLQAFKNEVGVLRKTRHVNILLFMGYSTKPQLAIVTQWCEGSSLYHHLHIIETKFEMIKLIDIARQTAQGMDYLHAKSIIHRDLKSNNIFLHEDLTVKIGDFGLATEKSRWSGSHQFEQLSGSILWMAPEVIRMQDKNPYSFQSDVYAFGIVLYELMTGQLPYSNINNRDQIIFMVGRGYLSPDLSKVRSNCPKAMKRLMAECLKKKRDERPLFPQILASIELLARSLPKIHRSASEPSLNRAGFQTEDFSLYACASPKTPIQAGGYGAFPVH

Take `CC(C)(C)OC(=O)N(C(=O)c1cccc(C2(C#N)CC2)c1Cl)c1cc(Oc2ccc3nc(NC(=O)C4CC4)sc3n2)ccc1F.CCO`: in series [1], the solubility thermodynamic was 4.2 µg/mL.

Turning to `CC(C)(C)OC(=O)Nc1cc(Oc2ccc3nc(NC(=O)C4CC4)sc3n2)ccc1F`, in series [2], the IC50 (usually the concentration that inhibits the measured activity by half) was found to be 2000 nM.

In the case of `CC(=O)Nc1nc2ccc(Oc3ccc(F)c(NC(=O)c4cccc(C5(C#N)CC5)c4Cl)c3)nc2s1`, the remaining at 1 h, 30 µM in series [3] was 78.5%.

As for `N#CC1(c2cccc(C(=O)N(C(=O)C3CC3)c3cc(Oc4ccc5nc(NC(=O)C6CC6)sc5n4)ccc3F)c2Cl)CC1`, in series [1], the solubility thermodynamic amounted to 3.2 µg/mL.
